Test results reported in US10815210B2, “Benzocyclobutane derivatives useful as dual SGLT1 / SGLT2 modulators” (Janssen Pharmaceutica NV, priority 2016, dated 2020).

Assays:
human SGLT2 = molecular target: T1, human SGLT2 (Homo sapiens, UniProt P31639); experiment: SGLT2 assay: Na-dependent 14C-AMG uptake in CHO-K1 cells stably expressing human SGLT2; type: cell-based; conditions: for IC50: 500 μM AMG, 2 hours at 37° C.
T1 construct: expressed in transfected cells; host or cells: CHO-K1
T1 sequence (P31639 1-672): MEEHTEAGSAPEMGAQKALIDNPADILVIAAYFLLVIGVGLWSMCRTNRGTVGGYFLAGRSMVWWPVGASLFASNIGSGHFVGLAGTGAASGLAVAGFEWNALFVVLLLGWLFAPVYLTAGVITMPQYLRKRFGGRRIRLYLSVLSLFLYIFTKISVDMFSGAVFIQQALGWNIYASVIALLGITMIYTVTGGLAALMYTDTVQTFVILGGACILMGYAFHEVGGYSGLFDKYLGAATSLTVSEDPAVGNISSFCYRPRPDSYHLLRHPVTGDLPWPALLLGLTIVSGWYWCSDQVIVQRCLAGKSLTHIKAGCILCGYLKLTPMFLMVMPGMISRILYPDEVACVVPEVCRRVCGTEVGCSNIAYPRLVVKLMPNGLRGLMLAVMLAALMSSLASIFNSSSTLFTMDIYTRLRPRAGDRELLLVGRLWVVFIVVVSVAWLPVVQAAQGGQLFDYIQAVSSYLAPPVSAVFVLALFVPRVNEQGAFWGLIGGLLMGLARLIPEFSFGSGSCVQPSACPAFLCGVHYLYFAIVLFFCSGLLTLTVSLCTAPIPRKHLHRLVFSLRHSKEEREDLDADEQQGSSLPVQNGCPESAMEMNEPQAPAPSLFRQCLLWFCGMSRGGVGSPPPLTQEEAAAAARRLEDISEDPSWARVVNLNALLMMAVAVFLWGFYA
Outline: (§1)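 CHO-K1 cells stably expressing human SGLT1 or SGLT2, pretreated 24 h with 10 mM Na-butyrate, were exposed 10 min to compound (0.001-10 μM) in Na-containing HEPES/Tris buffer pH 7.4. Uptake of ^14C-AMG (500 μM final) ran 2 h at 37° C, then Na-dependent uptake was counted by scintillation.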

human SGLT1 = molecular target: T2, human SGLT1 (Homo sapiens, UniProt P13866); experiment: SGLT1 assay: Na-dependent 14C-AMG uptake in CHO-K1 cells stably expressing human SGLT1; type: cell-based; conditions: for IC50: 500 μM AMG, 2 hours at 37° C.
T2 construct: expressed in transfected cells; host or cells: CHO-K1
T2 sequence (P13866 1-664): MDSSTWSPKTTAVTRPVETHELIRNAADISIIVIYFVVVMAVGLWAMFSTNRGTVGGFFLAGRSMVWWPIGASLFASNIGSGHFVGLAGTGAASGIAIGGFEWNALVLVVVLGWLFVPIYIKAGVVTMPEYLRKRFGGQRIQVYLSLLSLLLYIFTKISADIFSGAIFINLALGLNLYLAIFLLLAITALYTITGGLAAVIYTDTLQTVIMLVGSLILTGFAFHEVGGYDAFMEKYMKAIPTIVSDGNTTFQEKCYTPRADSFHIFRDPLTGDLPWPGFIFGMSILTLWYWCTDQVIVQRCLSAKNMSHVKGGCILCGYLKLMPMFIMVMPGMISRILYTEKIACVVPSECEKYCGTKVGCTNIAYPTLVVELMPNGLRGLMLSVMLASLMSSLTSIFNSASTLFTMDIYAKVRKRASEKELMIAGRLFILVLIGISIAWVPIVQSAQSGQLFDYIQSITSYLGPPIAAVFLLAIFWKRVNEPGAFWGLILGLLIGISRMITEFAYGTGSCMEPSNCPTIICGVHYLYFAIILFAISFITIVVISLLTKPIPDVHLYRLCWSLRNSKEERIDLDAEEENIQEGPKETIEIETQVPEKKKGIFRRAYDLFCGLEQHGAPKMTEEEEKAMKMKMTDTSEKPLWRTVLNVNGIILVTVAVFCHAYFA
Outline: as §1

IC50 (human SGLT2) [nM] | IC50 (human SGLT1) [nM] | inhibition at 0.03 µM (human SGLT2) [%] | inhibition at 0.3 µM (human SGLT1) [%] | SMILES
3 | 24 | – | – | [2H]C1([2H])Cc2ccc(Cc3cc([C@@H]4O[C@H](CO)[C@@H](O)[C@H](O)[C@H]4O)c(F)cc3OC)cc21 [Compound 72, (2S,3R,4R,5S,6R)-2-{5-[(8,8-dideuterio)bicyclo[4.2.0]octa-1(6),2,4-trien-3-ylmethyl]-2-fluoro-4-methoxyphenyl}-6-(hydroxymethyl)oxane-3,4,5-triol]
1 | 22 | – | – | CCOc1cc(Cl)c(Cc2ccc3c(c2)CC3)cc1[C@@H]1O[C@H](CO)[C@@H](O)[C@H](O)[C@H]1O [Compound 115]
1 | 22 | – | – | Cc1cc(OC2CC2)c([C@@H]2O[C@H](CO)[C@@H](O)[C@H](O)[C@H]2O)cc1Cc1ccc2c(c1)CC2 [Compound 118]
10 | 12 | – | – | [2H]C1([2H])Cc2ccc(Cc3cc([C@@H]4O[C@H](CO)[C@@H](O)[C@H](O)[C@H]4O)c(F)cc3C3CC3)cc21 [Compound 74, (2S,3R,4R,5S,6R)-2-(4-cyclopropyl-5-((2,2-dideuterium-1,2-dihydrocyclobutabenzen-4-yl)methyl)-2-fluorophenyl)-6-(hydroxymethyl)-tetrahydro-2H-pyran-3,4,5-triol]
3 | 39 | – | – | COc1ccc([C@@H]2O[C@H](CO)[C@@H](O)[C@H](O)[C@H]2O)cc1Cc1ccc2c(c1)CC2 [Compound 3, (2S,3R,4R,5S,6R)-2-(3-((1,2-dihydrocyclobutabenzen-4-yl)methyl)-4-methoxyphenyl)-6-(hydroxymethyl)-tetrahydro-2H-pyran-3,4,5-triol]
1 | 53 | – | – | COc1cc(Cl)c(Cc2ccc3c(c2)CC3)cc1[C@@H]1O[C@H](CO)[C@@H](O)[C@H](O)[C@H]1O [Compound 9]
3 | 12 | – | – | CN(C)c1cc(O)c([C@@H]2O[C@H](CO)[C@@H](O)[C@H](O)[C@H]2O)cc1Cc1ccc2c(c1)CC2 [Compound 22, (2S,3R,4R,5S,6R)-2-(5-((1,2-dihydrocyclobutabenzen-4-yl)methyl)-4-(dimethylamino)-2-hydroxyphenyl)-6-(hydroxymethyl)-tetrahydro-2H-pyran-3,4,5-triol]
– | – | 45 | 29 | CCc1cc(OC(F)(F)F)c([C@@H]2O[C@H](CO)[C@@H](O)[C@H](O)[C@H]2O)cc1Cc1ccc2c(c1)CC2 [Compound 35, (2S,3R,4R,5S,6R)-2-(5-((1,2-dihydrocyclobutabenzen-4-yl)methyl)-4-ethyl-2-(trifluoromethoxy)phenyl)-6-(hydroxymethyl)-tetrahydro-2H-pyran-3,4,5-triol]
8 | 47 | – | – | CCc1ccc([C@@H]2O[C@H](CO)[C@@H](F)[C@H](O)[C@H]2O)cc1Cc1ccc2c(c1)CC2 [Compound 128]
6 | 3 | – | – | OC[C@H]1O[C@@H](c2cc(Cc3ccc4c(c3)CC4)c(C3CC3)cc2O)[C@H](O)[C@@H](O)[C@@H]1O [Compound 14, (2S,3R,4R,5S,6R)-2-(5-(bicyclo[4.2.0]octa-1(6),2,4-trien-3-ylmethyl)-4-cyclopropyl-2-hydroxyphenyl)-6-(hydroxymethyl)oxane-3,4,5-triol]
– | – | 70 | 22 | OC[C@H]1O[C@@H](c2ccc(F)c(Cc3ccc4c(c3)CC4)c2)[C@H](O)[C@@H](O)[C@@H]1O [Compound 101]
1 | 15 | – | – | Cc1cc(O)c([C@@H]2O[C@H](CO)[C@@H](F)[C@H](O)[C@H]2O)cc1Cc1ccc2c(c1)CC2 [Compound 130]
1 | 80 | – | – | [2H]C1([2H])c2ccc(Cc3cc([C@@H]4O[C@H](CO)[C@@H](O)[C@H](O)[C@H]4O)ccc3Cl)cc2C1([2H])[2H] [Compound 123]
10 | 84 | – | – | COc1cc(F)c([C@@H]2O[C@H](CO)[C@@H](O)[C@H](O)[C@H]2O)cc1Cc1ccc2c(c1)CC2 [Compound 31, (2S,3R,4R,5S,6R)-2-(5-((1,2-dihydrocyclobutabenzen-4-yl)methyl)-2-fluoro-4-methoxyphenyl)-6-(hydroxymethyl)-tetrahydro-2H-pyran-3,4,5-triol]
1 | 33 | – | – | Cc1ccc([C@@H]2O[C@H](CO)[C@@H](O)[C@H](O)[C@H]2O)cc1Cc1ccc2c(c1)CC2 [Compound 1, (2S,3R,4R,5S,6R)-2-(3-((1,2-dihydrocyclobutabenzen-4-yl)methyl)-4-methylphenyl)-6-(hydroxymethyl)-tetrahydro-2H-pyran-3,4,5-triol]
1 | 84 | – | – | CCOc1cc(C)c(Cc2ccc3c(c2)CC3)cc1[C@@H]1O[C@H](CO)[C@@H](O)[C@H](O)[C@H]1O [Compound 113]
1 | 80 | – | – | [2H]C([2H])(c1ccc2c(c1)CC2)c1cc([C@@H]2O[C@H](CO)[C@@H](O)[C@H](O)[C@H]2O)c(OC)cc1C [Compound 53, (2S,3R,4R,5S,6R)-2-(5-(dideuterium(1,2-dihydrocyclobutabenzen-4-yl)methyl)-2-methoxy-4-methylphenyl)-6-(hydroxymethyl)-tetrahydro-2H-pyran-3,4,6-triol]
– | – | 39 | 24 | COc1cc(N(C)C)c(Cc2ccc3c(c2)CC3)cc1[C@@H]1O[C@H](CO)[C@@H](O)[C@H](O)[C@H]1O [Compound 23, (2S,3R,4R,5S,6R)-2-(5-((1,2-dihydrocyclobutabenzen-4-yl)methyl)-4-(dimethylamino)-2-methoxyphenyl)-6-(hydroxymethyl)-tetrahydro-2H-pyran-3,4,5-triol]
2 | 24 | – | – | [2H]C([2H])([2H])Oc1cc(OC)c(Cc2ccc3c(c2)CC3)cc1[C@@H]1O[C@H](CO)[C@@H](O)[C@H](O)[C@H]1O [Compound 112]
– | – | 71 | 36 | OC[C@H]1O[C@@H](c2cc(Cc3ccc4c(c3)CC4)ccc2O)[C@H](O)[C@@H](O)[C@@H]1O [Compound 25, (2S,3R,4R,5S,6R)-2-(5-{bicyclo[4.2.0]octa-1(6),2,4-trien-3-ylmethyl}-2-hydroxyphenyl)-6-(hydroxymethyl)oxane-3,4,5-triol]
3 | 83 | – | – | [2H]C([2H])(c1ccc2c(c1)CC2)c1cc([C@@H]2O[C@H](CO)[C@@H](O)[C@H](O)[C@H]2O)c(OC)cc1CC [Compound 60, (2S,3R,4R,5S,6R)-2-(5-(dideuterium(1,2-dihydrocyclobutabenzen-4-yl)methyl)-4-ethyl-2-methoxyphenyl)-6-(hydroxymethyl)-tetrahydro-2H-pyran-3,4,5-triol]
– | – | 35 | 67 | CN(C)c1ccc([C@@H]2O[C@H](CO)[C@@H](O)[C@H](O)[C@H]2O)cc1Cc1ccc2c(c1)CC2 [Compound 21, (2S,3R,4R,5S,6R)-2-(3-(bicyclo[4.2.0]octa-1(6),2,4-trien-3-ylmethyl)-4-(dimethylamino)phenyl)-6-(hydroxymethyl)oxane-3,4,8-triol]
2 | 63 | – | – | [2H]C1([2H])Cc2cc(Cc3cc([C@@H]4O[C@H](CO)[C@@H](O)[C@H](O)[C@H]4O)c(OC)cc3OC)ccc21 (single isomer, unassigned) [Compound 84]
2 | 18 | – | – | [2H]C1([2H])Cc2cc(Cc3cc([C@@H]4O[C@H](CO)[C@@H](O)[C@H](O)[C@H]4O)ccc3CC)ccc21 [Compound 87, (2S,3R,4R,5S,6R)-2-(3-((1,1-dideuterium-1,2-dihydrocyclo-butabenzen-4-yl)methyl)-4-ethylphenyl)-6-(hydroxymethyl)-tetrahydro-2H-pyran-3,4,5-triol]
1 | 49 | – | – | CCOc1cc(C)c(Cc2ccc3c(c2)CC3)cc1[C@@H]1O[C@H](CO)[C@@H](F)[C@H](O)[C@H]1O [Compound 131]
